Results on 21 compounds are retold here after ChEMBL document CHEMBL1201862, “PubChem BioAssay data set” (2004).

Test systems include MDA-MB-435; MDA-MB-231; DU-145; RXF 631; M19-MEL; LXFL 529; MDA-N; 786-0; XF498.
Assay in all cases: DTP human tumour cell line panel, 48 h

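Cultured in 96-well plates, cells were exposed to test compound for 48 hours across five concentrations. GI50 = concentration required for 50% inhibition of growth.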 Activity calls are given as the source filed them. No stated cut-off is given here; in the data, active = GI50 up to about 1.1 µM and inactive = higher.

As for `Cc1cccc(N2C(=O)C3c4[nH]c5ccc(C)cc5c4C4CCC(C(C)(C)C)CC4C3C2=O)c1` (stereo unspecified), the GI50 is 40.9 µM (inactive) with MDA-MB-435, 18.8 µM (inactive) in the experiment on MDA-MB-231 and 16.1 µM (inactive) in the experiment on DU-145.
For the compound `Cc1ccccc1OCC(COC(=O)Nc1ccccc1)OC(=O)Nc1ccccc1` (stereo unspecified), the results for the GI50 in the experiment with RXF 631, in the experiment on M19-MEL and with LXFL 529 were 9.93 µM (inactive), 31.1 µM (inactive) and 45.9 µM (inactive), respectively.
In the case of `CCCC[C@H]1[C@@H](OCOc2ccccc2)COC(=O)N1[C@H](C)c1ccccc1`, the GI50 in the experiment on MDA-N was 11.9 µM (inactive); in the experiment on MDA-MB-435 it was 13.3 µM (inactive); with MDA-MB-231, 13.3 µM (inactive); in the experiment with DU-145, 21.5 µM (inactive).
With `C/N=C1\S/C(=N\c2ccc(N(C)C)cc2)N1C`, the GI50 in the experiment with M19-MEL was 38 µM (inactive); in the experiment on LXFL 529, 40.5 µM (inactive); in the experiment with 786-0, 42.8 µM (inactive).
On to `CCC(C)COC(=O)c1ccc(/N=C\c2ccc(/C=N/c3ccc(C(=O)OCC(C)CC)cc3)cc2)cc1` (stereo unspecified), for which the GI50 in the experiment on RXF 631, in the experiment on LXFL 529 and in the experiment with 786-0 was > 100 µM (inactive) throughout.
In the case of `O=C(O)C1CCCCN1C(=O)c1ccccc1` (stereo unspecified), the GI50 in the experiment on RXF 631, in the experiment on M19-MEL, in the experiment on XF498, with LXFL 529 and in the experiment on 786-0 was > 100 µM (inactive) each time.
Turning to `CN(C)CCNC(=O)c1cccc2c1C(=O)c1ccccc1C2=O`, the GI50 was 20 µM (inactive) with M19-MEL and > 100 µM (inactive) with XF498.
`CCOC(C)OC1CC(n2cc(C)c(=O)[nH]c2=O)OC1CO` (stereo unspecified): the GI50 in the experiment on M19-MEL, in the experiment with XF498 and in the experiment on LXFL 529 was > 100 µM (inactive) each time.
In the case of `CC(/C=N/N=C(N)N)=N\N=C(N)N`, the GI50 with MDA-N is 15.2 µM (inactive); with MDA-MB-435 it was 12.9 µM (inactive); in the experiment on MDA-MB-231 it was 22.6 µM (inactive); in the experiment on XF498, 2.96 µM (inactive); with LXFL 529 it was 61.9 µM (inactive); in the experiment on DU-145 it was 46.6 µM (inactive).
Consider `COc1cc(C(C)O)c(S(=O)(=O)CC(C)O)nn1` (stereo unspecified), for which the GI50 in the experiment with MDA-N, in the experiment with MDA-MB-435 and with DU-145 was > 100 µM (inactive) throughout.
With `CC1=CC2c3cccc4[nH]cc(c34)CC2N(C)C1` (stereo unspecified), the GI50 with M19-MEL is > 100 µM (inactive); in the experiment with XF498, 9.75 µM (inactive).
As to `CCOC(=O)CCc1c(C)c2c(OC(C)=O)cc(OC(C)=O)cc2oc1=O`, the GI50 with M19-MEL is 61.9 µM (inactive); in the experiment on LXFL 529, 37.4 µM (inactive); in the experiment on 786-0, 78.7 µM (inactive).
`Cc1c2c(cc3c1[nH]c1ccccc13)C(c1ccc(F)cc1)=NCC2`: the GI50 is 1.21 µM (inactive) with M19-MEL and 1.67 µM (inactive) in the experiment on XF498.
With `COc1cccc(N2C(=O)C3c4[nH]c5ccc(C)cc5c4C4CCC(C(C)(C)C)CC4C3C2=O)c1` (stereo unspecified), the GI50 in the experiment with MDA-N is > 10 µM (inactive); with MDA-MB-435 it was > 10 µM (inactive); with MDA-MB-231 it was 5.48 µM (inactive); with DU-145 it was > 10 µM (inactive).
`N#CCCC1(CCC#N)CCCCCCC(CCC#N)(CCC#N)C(O)C1O` (stereo unspecified): the GI50 with MDA-N, in the experiment with MDA-MB-435, with 786-0 and in the experiment on DU-145 was > 100 µM (inactive) throughout.
Consider `Cc1[nH]c(=O)[nH]c(=O)c1C(=O)N(CCO)Cc1ccccc1`, for which the GI50 in the experiment with MDA-N, in the experiment with MDA-MB-435, with MDA-MB-231 and with DU-145 was > 100 µM (inactive) each time.
For the compound `CCOC(=O)C(O)(NC(=O)c1ccc(F)cc1)C(F)(F)F` (stereo unspecified), the GI50 in the experiment on MDA-N is > 100 µM (inactive); in the experiment with MDA-MB-435 it was > 100 µM (inactive); in the experiment on MDA-MB-231 it was 59.8 µM (inactive); in the experiment on DU-145, > 100 µM (inactive).
On to `O=S(=O)(O)c1cc2ccc1/C=C\c1ccc(cc1S(=O)(=O)O)/N=N\c1ccc(c(S(=O)(=O)O)c1)/C=C\c1ccc(cc1S(=O)(=O)O)/N=N\2`, for which the figures for the GI50 with M19-MEL and with XF498 were > 100 µM (inactive) and > 88.3 µM (inactive), respectively.
For `COc1cc([C@@H]2c3cc4c(c(O[C@@H]5O[C@H]6CO[C@@H](C)O[C@H]6[C@H](O)[C@@H]5O)c3C[C@H]3COC(=O)[C@@H]32)OCO4)cc(OC)c1O` the same measures were 20.5 µM (inactive) and 12.6 µM (inactive).
With `CC1=C[C@]2(CC(C)C3C(CC4(C)C5CCC6C(C)(C)C(=O)CC[C@@]67C[C@@]57CC[C@]34C)O2)OC1=O` (stereo partly specified), the GI50 is 3.54 µM (inactive) in the experiment on RXF 631, 13.9 µM (inactive) with XF498 and 7.52 µM (inactive) in the experiment with LXFL 529.
Consider `COC1C(O)CC(OC2CC(Oc3cc4cc5c(c(O)c4c(O)c3C)C(=O)[C@@H](OC3CC(OC4CC(OC6CC(C)(O)C(OC(C)=O)C(C)O6)C(O)C(C)O4)C(O)C(C)O3)[C@H]([C@H](OC)C(=O)[C@@H](O)[C@@H](C)O)C5)OC(C)C2OC(C)=O)OC1C` (stereo partly specified) [CHROMOMYCIN], for which the GI50 is 3.15e-05 µM (active) in the experiment on MDA-N; 2.44e-05 µM (active) in the experiment on MDA-MB-435; 0.00337 µM (active) in the experiment on M19-MEL; 3e-05 µM (active) in the experiment with MDA-MB-231; 0.00315 µM (active) with XF498; 2.48e-05 µM (active) with DU-145.
